From PubChem BioAssay AID1745844 (Carcinogenic Potency Database (CPDB), 2022) come the findings set out here.

In the data set the test system is rodent lifetime carcinogenesis bioassay, tumor incidence TD50. Kind of data set: chronic cancer bioassays in animals – CPDB, compiled studies (AID 1745844).

Values joined by “and” are separate entries in the source; they are usually repeats but may differ in a detail not shown here. Identical values can stand only once. Active and inactive are the calls of the source. The rule behind the calls is not given here.

With `CCN(CC)CCOc1ccc(C(=C(Cl)c2ccccc2)c2ccccc2)cc1`, the TD50 (in general, the dose at which the toxic effect under study appears in half of the subjects) was 3.62 mg/kg/day (inactive) (mouse, strain C57L/He x 129/Rr x C3HeB/De x SWR/Ly, females, by gavage, site: any site (literature study), lesion: several types, types named in the paper, dosed 69 weeks, study length 69 weeks) and 5 mg/kg/day (inactive) (mouse, strain C57L/He x 129/Rr x C3HeB/De x SWR/Ly, females, by gavage, site: lung, lesion: one or several types, types not named, dosed 69 weeks, study length 69 weeks). The carcinogen call (mouse, strain C57L/He x 129/Rr x C3HeB/De x SWR/Ly, females, by gavage, site: any site (literature study), lesion: several types, types named in the paper, dosed 69 weeks, study length 82 weeks) was “negative (inactive)”.
With `Cn1cc(C(=O)[C@@H]2CCc3nc[nH]c3C2)c2ccccc21`, the carcinogen call is “negative (inactive)” (mouse, strain B6C3F1, females, by gavage, site: liver, lesion: hepatocellular adenoma, dosed 104 weeks, study length 104 weeks); “negative (inactive)” (mouse, strain B6C3F1, females, by gavage, site: lung, lesion: adenoma, dosed 104 weeks, study length 104 weeks); “negative (inactive)” (mouse, strain B6C3F1, females, by gavage, site: lung, lesion: carcinoma, dosed 104 weeks, study length 104 weeks); “negative (inactive)” (mouse, strain B6C3F1, males, by gavage, site: liver, lesion: hepatocellular adenoma, dosed 104 weeks, study length 104 weeks); “negative (inactive)” (mouse, strain B6C3F1, males, by gavage, site: liver, lesion: hepatocellular carcinoma, dosed 104 weeks, study length 104 weeks); “negative (inactive)” (mouse, strain B6C3F1, males, by gavage, site: lung, lesion: adenoma, dosed 104 weeks, study length 104 weeks). Besides, the carcinogen call is, setting by setting: (mouse, strain B6C3F1, males, by gavage, site: lung, lesion: carcinoma, dosed 104 weeks, study length 104 weeks) “negative (inactive)”; (rat, strain Fischer 344, females, by gavage, site: liver, lesion: hepatocellular adenoma, dosed 104 weeks, study length 104 weeks) “negative (inactive)”; (rat, strain Fischer 344, males, by gavage, site: liver, lesion: hepatocellular adenoma, dosed 104 weeks, study length 104 weeks) “negative (inactive)”. Further, the TD50 (mouse, strain B6C3F1, females, by gavage, site: liver, lesion: hepatocellular carcinoma, dosed 104 weeks, study length 104 weeks) was 1040 mg/kg/day (inactive).
`c1cc(OCC2CO2)cc(OCC2CO2)c1` (stereo unspecified): the TD50 was 32.3 mg/kg/day (mouse, strain B6C3F1, females, by gavage, site: any site (literature study), lesion: several types, types named in the paper, dosed 103 weeks, study length 105 weeks); 169 mg/kg/day (mouse, strain B6C3F1, females, by gavage, site: liver, lesion: hepatocellular adenoma + hepatocellular carcinoma + neoplastic nodule, dosed 103 weeks, study length 105 weeks); 221 mg/kg/day (mouse, strain B6C3F1, females, by gavage, site: liver, lesion: hepatocellular carcinoma, dosed 103 weeks, study length 105 weeks); 4790 mg/kg/day (mouse, strain B6C3F1, females, by gavage, site: lung, lesion: alveolar/bronchiolar adenoma + alveolar/bronchiolar carcinoma, dosed 103 weeks, study length 105 weeks); 17.9 mg/kg/day (mouse, strain B6C3F1, females, by gavage, site: stomach, lesion: papillomatosis + squamous-cell carcinoma + squamous-cell papilloma, dosed 103 weeks, study length 105 weeks); 48.2 mg/kg/day (mouse, strain B6C3F1, females, by gavage, site: stomach, lesion: papillomatosis + squamous-cell papilloma, dosed 103 weeks, study length 105 weeks). Further, the TD50 (mouse, strain B6C3F1, females, by gavage, site: stomach, lesion: squamous-cell carcinoma, dosed 103 weeks, study length 105 weeks) is 36.3 mg/kg/day; the TD50 (mouse, strain B6C3F1, males, by gavage, site: any site (literature study), lesion: several types, types named in the paper, dosed 103 weeks, study length 104 weeks) was found to be 36.6 mg/kg/day; the TD50 (mouse, strain B6C3F1, males, by gavage, site: liver, lesion: hepatocellular adenoma + hepatocellular carcinoma + neoplastic nodule, dosed 103 weeks, study length 104 weeks) was determined as 84.7 mg/kg/day; the TD50 (mouse, strain B6C3F1, males, by gavage, site: lung, lesion: alveolar/bronchiolar adenoma + alveolar/bronchiolar carcinoma, dosed 103 weeks, study length 104 weeks) was 1350 mg/kg/day; the TD50 (mouse, strain B6C3F1, males, by gavage, site: stomach, lesion: papillomatosis + squamous-cell carcinoma + squamous-cell papilloma, dosed 103 weeks, study length 104 weeks) was 37.8 mg/kg/day; the TD50 (mouse, strain B6C3F1, males, by gavage, site: stomach, lesion: papillomatosis + squamous-cell papilloma, dosed 103 weeks, study length 104 weeks) was 145 mg/kg/day. In addition, the TD50 reads like this: (mouse, strain B6C3F1, males, by gavage, site: stomach, lesion: squamous-cell carcinoma, dosed 103 weeks, study length 104 weeks) 55.5 mg/kg/day; (rat, strain Fischer 344, females, by gavage, site: any site (literature study), lesion: several types, types named in the paper, dosed 103 weeks, study length 104 weeks) 8.53 mg/kg/day and 16 mg/kg/day; (rat, strain Fischer 344, females, by gavage, site: forestomach, lesion: squamous-cell carcinoma + squamous-cell papilloma, dosed 103 weeks, study length 104 weeks) 3.53 mg/kg/day; (rat, strain Fischer 344, females, by gavage, site: forestomach, lesion: squamous-cell carcinoma, dosed 103 weeks, study length 104 weeks) 5.93 mg/kg/day; (rat, strain Fischer 344, females, by gavage, site: forestomach, lesion: squamous-cell papilloma, dosed 103 weeks, study length 104 weeks) 8.95 mg/kg/day; (rat, strain Fischer 344, females, by gavage, site: liver, lesion: hepatocellular adenoma + hepatocellular carcinoma + neoplastic nodule, dosed 103 weeks, study length 104 weeks) 174 mg/kg/day. Moreover, the TD50 (rat, strain Fischer 344, females, by gavage, site: stomach, lesion: squamous-cell carcinoma + squamous-cell papilloma, dosed 103 weeks, study length 104 weeks) was 4.47 mg/kg/day; the TD50 (rat, strain Fischer 344, females, by gavage, site: stomach, lesion: squamous-cell carcinoma, dosed 103 weeks, study length 104 weeks) is 5.1 mg/kg/day; the TD50 (rat, strain Fischer 344, females, by gavage, site: stomach, lesion: squamous-cell papilloma, dosed 103 weeks, study length 104 weeks) was 45.5 mg/kg/day; the TD50 (rat, strain Fischer 344, males, by gavage, site: any site (literature study), lesion: several types, types named in the paper, dosed 98 weeks, study length 104 weeks) is 2.43 mg/kg/day; the TD50 (rat, strain Fischer 344, males, by gavage, site: any site (literature study), lesion: several types, types named in the paper, dosed 103 weeks, study length 104 weeks) amounted to 4.61 mg/kg/day; the TD50 (rat, strain Fischer 344, males, by gavage, site: forestomach, lesion: squamous-cell carcinoma + squamous-cell papilloma, dosed 103 weeks, study length 104 weeks) was determined as 2.33 mg/kg/day. In addition, the TD50 was 2.73 mg/kg/day (rat, strain Fischer 344, males, by gavage, site: forestomach, lesion: squamous-cell carcinoma, dosed 103 weeks, study length 104 weeks); 8.16 mg/kg/day (rat, strain Fischer 344, males, by gavage, site: forestomach, lesion: squamous-cell papilloma, dosed 103 weeks, study length 104 weeks); 114 mg/kg/day (rat, strain Fischer 344, males, by gavage, site: liver, lesion: hepatocellular adenoma + hepatocellular carcinoma + neoplastic nodule, dosed 98 weeks, study length 104 weeks); 640 mg/kg/day (rat, strain Fischer 344, males, by gavage, site: liver, lesion: hepatocellular adenoma + hepatocellular carcinoma + neoplastic nodule, dosed 103 weeks, study length 104 weeks); 12.2 mg/kg/day (rat, strain Fischer 344, males, by gavage, site: pituitary gland, lesion: adenoma, NOS, dosed 98 weeks, study length 104 weeks); 2.89 mg/kg/day (rat, strain Fischer 344, males, by gavage, site: stomach, lesion: squamous-cell carcinoma + squamous-cell papilloma, dosed 98 weeks, study length 104 weeks). Also, the TD50 was 3.06 mg/kg/day (rat, strain Fischer 344, males, by gavage, site: stomach, lesion: squamous-cell carcinoma, dosed 98 weeks, study length 104 weeks); 24.7 mg/kg/day (rat, strain Fischer 344, males, by gavage, site: stomach, lesion: squamous-cell papilloma, dosed 98 weeks, study length 104 weeks); 2.35 mg/kg/day (rat, strain Fischer 344, males, by gavage, site: testis, lesion: interstitial-cell tumor, dosed 98 weeks, study length 104 weeks).
Consider `Oc1cc2c(cc1O)[C@@H]1c3ccc(O)c(O)c3OC[C@]1(O)C2`, for which the TD50 is 2410 mg/kg/day (rat, strain Wistar, both sexes, in feed, site: abdomen, lesion: malignant lymphoma, dosed 78 weeks, study length 78 weeks); 2410 mg/kg/day (rat, strain Wistar, both sexes, in feed, site: forehead, lesion: malignant lymphoma, dosed 78 weeks, study length 78 weeks); 1000 mg/kg/day (rat, strain Wistar, both sexes, in feed, site: several sites, sites named in the paper, lesion: malignant lymphoma, dosed 78 weeks, study length 78 weeks).
Regarding `Cn1cnc2nc(N)[nH]c(=O)c21`, the TD50 (rat, strain BR 46, both sexes, i.v., site: any site (literature study), lesion: malignant tumor, dosed 106 weeks, study length 126 weeks) is 8.24 mg/kg/day (inactive).
For `Brc1cc(Br)c2cccnc2c1`, the carcinogen call (rat, strain Fischer 344, females, in feed, site: liver, lesion: hyperplastic nodule, dosed 104 weeks, study length 104 weeks) is “negative (inactive)”. Also, the TD50 is 754 mg/kg/day (inactive) (rat, strain Fischer 344, males, in feed, site: liver, lesion: hyperplastic nodule, dosed 104 weeks, study length 104 weeks) and 69.4 mg/kg/day (inactive) (rat, strain Fischer 344, males, in feed, site: testis, lesion: interstitial-cell tumor, dosed 104 weeks, study length 104 weeks).
Take `NC(=O)Cc1c([O-])on[n+]1Cc1ccccc1`: the TD50 is 10.2 mg/kg/day (mouse, strain DDD, females, in drinking water, site: liver, lesion: hepatocellular adenoma, dosed 52 weeks, study length 52 weeks); 22.6 mg/kg/day (mouse, strain DDD, females, in drinking water, site: liver, lesion: hepatocellular carcinoma, dosed 52 weeks, study length 52 weeks); 10.2 mg/kg/day (mouse, strain DDD, females, in drinking water, site: liver, lesion: several types, types named in the paper, dosed 52 weeks, study length 52 weeks); 31.4 mg/kg/day (mouse, strain DDD, females, in drinking water, site: lung, lesion: adenoma, dosed 52 weeks, study length 52 weeks); 4.24 mg/kg/day (rat, strain Donryu, males, in drinking water, site: liver, lesion: hepatocellular carcinoma, dosed 41 weeks, study length 91 weeks); 15.1 mg/kg/day (rat, strain Donryu, males, in drinking water, site: liver, lesion: neoplastic nodule, dosed 41 weeks, study length 91 weeks). Besides, the TD50 (rat, strain Donryu, males, in drinking water, site: liver, lesion: several types, types named in the paper, dosed 41 weeks, study length 91 weeks) was 4.24 mg/kg/day. For the same compound, for the setting “rat, strain Donryu, males, in feed, site: liver, lesion: one or several types, types not named, dosed 104 weeks, study length 104 weeks”, the carcinogen call was “negative (inactive)”.
